Assay results published in PubChem BioAssay AID1963827 (Molecular Pharmacology Branch, DTP, NCI, 2024).

System: 994946-033-R-J1-PDC complex spheroid viability
Assay: Anticancer human tumor 994946-033-R-J1-PDC patient-derived melanoma cell line growth inhibition [POLQ]
Conditions: for IC50: curve of first compound; for viability, T/C: stronger effect = lower value
Method in brief: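 Complex spheroid viability model combining PDC tumour cells with endothelial (HUVEC) and MSC stromal cells. Novobiocin, ART-558 or RP6685 were tested singly and in combination with standard and investigational anticancer drugs. Each was titrated in half-log steps from near clinical Cmax, or from 10 microM where Cmax was unknown.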

[1] = second compound 0.0316 µM, first compound 0.0316 µM
[2] = second compound 0.0316 µM, first compound 0.1 µM
[3] = second compound 0.0316 µM, first compound 0.316 µM
[4] = second compound 0.0316 µM, first compound 1 µM
[5] = second compound 0.1 µM, first compound 0.0316 µM
[6] = second compound 0.1 µM, first compound 0.1 µM
[7] = second compound 0.1 µM, first compound 0.316 µM
[8] = second compound 0.1 µM, first compound 1 µM
[9] = second compound 0.316 µM, first compound 0.0316 µM
[10] = second compound 0.316 µM, first compound 0.1 µM
[11] = second compound 0.316 µM, first compound 0.316 µM
[12] = second compound 0.316 µM, first compound 1 µM
[13] = second compound 1 µM, first compound 0.0316 µM
[14] = second compound 1 µM, first compound 0.1 µM
[15] = second compound 1 µM, first compound 0.316 µM
[16] = second compound 1 µM, first compound 1 µM
[17] = second compound 3.16 µM, first compound 0.0316 µM
[18] = second compound 3.16 µM, first compound 0.1 µM
[19] = second compound 3.16 µM, first compound 0.316 µM
[20] = second compound 3.16 µM, first compound 1 µM
[21] = second compound 10 µM, first compound 0.0316 µM
[22] = second compound 10 µM, first compound 0.1 µM
[23] = second compound 10 µM, first compound 0.316 µM
[24] = second compound 10 µM, first compound 1 µM
[25] = second compound 0.0316 µM, first compound 3.16 µM
[26] = second compound 0.0316 µM, first compound 10 µM
[27] = second compound 0.1 µM, first compound 3.16 µM
[28] = second compound 0.1 µM, first compound 10 µM
[29] = second compound 0.316 µM, first compound 3.16 µM
[30] = second compound 0.316 µM, first compound 10 µM
[31] = second compound 1 µM, first compound 3.16 µM
[32] = second compound 1 µM, first compound 10 µM
[33] = second compound 3.16 µM, first compound 3.16 µM
[34] = second compound 3.16 µM, first compound 10 µM
[35] = second compound 10 µM, first compound 3.16 µM
[36] = second compound 10 µM, first compound 10 µM
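Note: spheroids exposed to drugs for 7 days.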
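Throughout, for viability, T/C: 100% = DMSO vehicle treated spheroids.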

SMILES: CCc1c2c(nc3ccc(O)cc13)-c1cc3c(c(=O)n1C2)COC(=O)[C@]3(O)CC + COC1C(OC(N)=O)C(O)C(Oc2ccc3c(O)c(NC(=O)c4ccc(O)c(CC=C(C)C)c4)c(=O)oc3c2C)OC1(C)C
- IC50 (second compound 0.0316 µM): < 0.00316 µM
- IC50 (second compound 0.1 µM): < 0.00316 µM
- IC50 (second compound 0.316 µM): < 0.00316 µM
- IC50 (second compound 1 µM): < 0.00316 µM
- IC50 (second compound 3.16 µM): < 0.00316 µM
- IC50 (second compound 10 µM): < 0.00316 µM
- viability, T/C (second compound 0.0316 µM, first compound 0.00316 µM): 21.2%
- viability, T/C (second compound 0.0316 µM, first compound 0.01 µM): 10.5%
- viability, T/C [1]: 5.04%
- viability, T/C [2]: 6.46%
- viability, T/C [3]: 4.53%
- viability, T/C [4]: 1.07%
- viability, T/C (second compound 0.1 µM, first compound 0.00316 µM): 14.8%
- viability, T/C (second compound 0.1 µM, first compound 0.01 µM): 7.14%
- viability, T/C [5]: 4.91%
- viability, T/C [6]: 4.35%
- viability, T/C [7]: 3.22%
- viability, T/C [8]: 0.99%
- viability, T/C (second compound 0.316 µM, first compound 0.00316 µM): 20.7%
- viability, T/C (second compound 0.316 µM, first compound 0.01 µM): 8.29%
- viability, T/C [9]: 4.94%
- viability, T/C [10]: 5%
- viability, T/C [11]: 3.67%
- viability, T/C [12]: 0.92%
- viability, T/C (second compound 1 µM, first compound 0.00316 µM): 21.2%
- viability, T/C (second compound 1 µM, first compound 0.01 µM): 8.21%
- viability, T/C [13]: 5.36%
- viability, T/C [14]: 4.87%
- viability, T/C [15]: 3%
- viability, T/C [16]: 0.93%
- viability, T/C (second compound 3.16 µM, first compound 0.00316 µM): 17.8%
- viability, T/C (second compound 3.16 µM, first compound 0.01 µM): 9.17%
- viability, T/C [17]: 4.15%
- viability, T/C [18]: 4.13%
- viability, T/C [19]: 3.2%
- viability, T/C [20]: 0.9%
- viability, T/C (second compound 10 µM, first compound 0.00316 µM): 16.8%
- viability, T/C (second compound 10 µM, first compound 0.01 µM): 6.62%
- viability, T/C [21]: 5.93%
- viability, T/C [22]: 4.77%
- viability, T/C [23]: 2.81%
- viability, T/C [24]: 1.02%

SMILES: CC(C)n1c(=O)n(C)c2cnc3cc(F)c(-c4ccc(OCCCN5CCCCC5)nc4)cc3c21 + Cc1cccc(N(C)C(=O)C2C(O)CCN2c2nc(C)cc(C(F)(F)F)c2C#N)c1
- IC50 (second compound 0.0316 µM): 6.24 µM
- IC50 (second compound 0.1 µM): 4.69 µM
- IC50 (second compound 0.316 µM): 5.46 µM
- IC50 (second compound 1 µM): 5.62 µM
- IC50 (second compound 3.16 µM): 6.62 µM
- IC50 (second compound 10 µM): 4.14 µM
- viability, T/C [1]: 97.3%
- viability, T/C [2]: 97.6%
- viability, T/C [3]: 87.2%
- viability, T/C [4]: 74.2%
- viability, T/C [25]: 71.4%
- viability, T/C [26]: 37.8%
- viability, T/C [5]: 92.1%
- viability, T/C [6]: 67.6%
- viability, T/C [7]: 75.8%
- viability, T/C [8]: 62.5%
- viability, T/C [27]: 69.3%
- viability, T/C [28]: 23.8%
- viability, T/C [9]: 82.5%
- viability, T/C [10]: 117%
- viability, T/C [11]: 87.9%
- viability, T/C [12]: 93.6%
- viability, T/C [29]: 84.5%
- viability, T/C [30]: 11.8%
- viability, T/C [13]: 97%
- viability, T/C [14]: 81%
- viability, T/C [15]: 94%
- viability, T/C [16]: 93.6%
- viability, T/C [31]: 83.5%
- viability, T/C [32]: 16.3%
- viability, T/C [17]: 94.8%
- viability, T/C [18]: 62.2%
- viability, T/C [19]: 94.4%
- viability, T/C [20]: 90.7%
- viability, T/C [33]: 92%
- viability, T/C [34]: 29.4%
- viability, T/C [21]: 109%
- viability, T/C [22]: 92.6%
- viability, T/C [23]: 93.2%
- viability, T/C [24]: 74.7%
- viability, T/C [35]: 63.2%
- viability, T/C [36]: 22.3%

SMILES: O=C(Nc1ccc(O)c(NS(=O)(=O)c2ccc(F)cc2)c1)c1ccc(-c2ccccc2)cc1 + Cc1cccc(N(C)C(=O)C2C(O)CCN2c2nc(C)cc(C(F)(F)F)c2C#N)c1
- IC50 (second compound 0.0316 µM): 9.36 µM
- IC50 (second compound 0.1 µM): > 10 µM
- IC50 (second compound 0.316 µM): 6.51 µM
- IC50 (second compound 1 µM): 5.59 µM
- IC50 (second compound 3.16 µM): 5.89 µM
- IC50 (second compound 10 µM): 2.98 µM
- viability, T/C [1]: 90.8%
- viability, T/C [2]: 98%
- viability, T/C [3]: 112%
- viability, T/C [4]: 126%
- viability, T/C [25]: 92.9%
- viability, T/C [26]: 47.3%
- viability, T/C [5]: 108%
- viability, T/C [6]: 87.9%
- viability, T/C [7]: 118%
- viability, T/C [8]: 65%
- viability, T/C [27]: 61.3%
- viability, T/C [28]: 39.4%
- viability, T/C [9]: 84.1%
- viability, T/C [10]: 109%
- viability, T/C [11]: 91.4%
- viability, T/C [12]: 121%
- viability, T/C [29]: 74.8%
- viability, T/C [30]: 35.2%
- viability, T/C [13]: 87.7%
- viability, T/C [14]: 95.4%
- viability, T/C [15]: 81.2%
- viability, T/C [16]: 105%
- viability, T/C [31]: 61.9%
- viability, T/C [32]: 37.9%
- viability, T/C [17]: 73.5%
- viability, T/C [18]: 59.4%
- viability, T/C [19]: 90.2%
- viability, T/C [20]: 73%
- viability, T/C [33]: 81.3%
- viability, T/C [34]: 28.3%
- viability, T/C [21]: 85.5%
- viability, T/C [22]: 81.3%
- viability, T/C [23]: 95.8%
- viability, T/C [24]: 81.3%
- viability, T/C [35]: 48.4%
- viability, T/C [36]: 26.8%
